Activity calls are given as the source filed them. No rule for the calls is given here.
System: CCRIS mutagenicity, Ames/micronucleus/aberration tests
Experiment: CCRIS mutagenicity studies

CN(C)P(=O)(N(C)C)N(C)C
mutagenic call (Test System: AMES SALMONELLA TYPHIMURIUM, Strain/Indicator: TA97, Metabolic Activation: HAMSTER LIVER S-9, AROCLOR 1254 (10 OR 30%), Method: PREINCUBATION): inactive; negative
mutagenic call (Test System: AMES SALMONELLA TYPHIMURIUM, Strain/Indicator: TA97, Metabolic Activation: NONE, Method: PREINCUBATION): inactive; negative
mutagenic call (Test System: AMES SALMONELLA TYPHIMURIUM, Strain/Indicator: TA97, Metabolic Activation: NONE, Method: STANDARD PLATE): inactive; negative
mutagenic call (Test System: AMES SALMONELLA TYPHIMURIUM, Strain/Indicator: TA97, Metabolic Activation: RAT LIVER S-9, AROCLOR 1254 (10 OR 30%), Method: PREINCUBATION): inactive; negative
mutagenic call (Test System: AMES SALMONELLA TYPHIMURIUM, Strain/Indicator: TA97, Metabolic Activation: RAT, LIVER, S-9, AROCLOR 1254, Method: STANDARD PLATE): inactive; negative
mutagenic call (Test System: AMES SALMONELLA TYPHIMURIUM, Strain/Indicator: TA97, Metabolic Activation: RAT, LIVER, S-9, AROCLOR 1254, Method: SUSPENSION): active; positive
mutagenic call (Test System: AMES SALMONELLA TYPHIMURIUM, Strain/Indicator: TA97, Metabolic Activation: S-9, Method: STANDARD PLATE): inactive; negative
mutagenic call (Test System: AMES SALMONELLA TYPHIMURIUM, Strain/Indicator: TA98, Metabolic Activation: HAMSTER LIVER S-9, AROCLOR 1254 (10 OR 30%), Method: PREINCUBATION): inactive; negative
mutagenic call (Test System: AMES SALMONELLA TYPHIMURIUM, Strain/Indicator: TA98, Metabolic Activation: NONE, Method: PREINCUBATION): inactive; negative
mutagenic call (Test System: AMES SALMONELLA TYPHIMURIUM, Strain/Indicator: TA98, Metabolic Activation: NONE, Method: STANDARD PLATE): inactive; negative
mutagenic call (Test System: AMES SALMONELLA TYPHIMURIUM, Strain/Indicator: TA98, Metabolic Activation: RAT LIVER S-9, AROCLOR 1254 (10 OR 30%), Method: PREINCUBATION): inactive; negative
mutagenic call (Test System: AMES SALMONELLA TYPHIMURIUM, Strain/Indicator: TA98, Metabolic Activation: RAT, LIVER, S-9, AROCLOR 1254, Method: STANDARD PLATE): inactive; negative
mutagenic call (Test System: AMES SALMONELLA TYPHIMURIUM, Strain/Indicator: TA98, Metabolic Activation: RAT, LIVER, S-9, AROCLOR 1254, Method: SUSPENSION): active; positive
mutagenic call (Test System: AMES SALMONELLA TYPHIMURIUM, Strain/Indicator: TA98, Metabolic Activation: S-9, Method: STANDARD PLATE): inactive; negative
mutagenic call (Test System: AMES SALMONELLA TYPHIMURIUM, Strain/Indicator: TA100, Metabolic Activation: HAMSTER LIVER S-9, AROCLOR 1254 (10 OR 30%), Method: PREINCUBATION): inactive; negative
mutagenic call (Test System: AMES SALMONELLA TYPHIMURIUM, Strain/Indicator: TA100, Metabolic Activation: NONE, Method: PREINCUBATION): inactive; negative
mutagenic call (Test System: AMES SALMONELLA TYPHIMURIUM, Strain/Indicator: TA100, Metabolic Activation: NONE, Method: STANDARD PLATE): inactive; negative
mutagenic call (Test System: AMES SALMONELLA TYPHIMURIUM, Strain/Indicator: TA100, Metabolic Activation: NONE, Method: SUSPENSION): inactive; negative
mutagenic call (Test System: AMES SALMONELLA TYPHIMURIUM, Strain/Indicator: TA100, Metabolic Activation: RAT LIVER S-9, AROCLOR 1254 (10 OR 30%), Method: PREINCUBATION): inactive; negative
mutagenic call (Test System: AMES SALMONELLA TYPHIMURIUM, Strain/Indicator: TA100, Metabolic Activation: RAT, LIVER, S-9, AROCLOR 1254 (4, 10 OR 30%), Method: PREINCUBATION): inactive; negative
mutagenic call (Test System: AMES SALMONELLA TYPHIMURIUM, Strain/Indicator: TA100, Metabolic Activation: RAT, LIVER, S-9, AROCLOR 1254 (10%), Method: STANDARD PLATE): inactive; negative
mutagenic call (Test System: AMES SALMONELLA TYPHIMURIUM, Strain/Indicator: TA100, Metabolic Activation: RAT, LIVER, S-9, AROCLOR 1254, Method: PREINCUBATION): inactive; negative
mutagenic call (Test System: AMES SALMONELLA TYPHIMURIUM, Strain/Indicator: TA100, Metabolic Activation: RAT, LIVER, S-9, AROCLOR 1254, Method: STANDARD PLATE): inactive; negative
mutagenic call (Test System: AMES SALMONELLA TYPHIMURIUM, Strain/Indicator: TA100, Metabolic Activation: RAT, LIVER, S-9, AROCLOR 1254, Method: SUSPENSION): active; positive
mutagenic call (Test System: AMES SALMONELLA TYPHIMURIUM, Strain/Indicator: TA100, Metabolic Activation: S-9, Method: STANDARD PLATE): inactive; negative
mutagenic call (Test System: AMES SALMONELLA TYPHIMURIUM, Strain/Indicator: TA102, Metabolic Activation: NONE, Method: STANDARD PLATE): inactive; negative
mutagenic call (Test System: AMES SALMONELLA TYPHIMURIUM, Strain/Indicator: TA102, Metabolic Activation: S-9, Method: STANDARD PLATE): inactive; negative
mutagenic call (Test System: AMES SALMONELLA TYPHIMURIUM, Strain/Indicator: TA1535, Metabolic Activation: HAMSTER LIVER S-9, AROCLOR 1254 (10 OR 30%), Method: PREINCUBATION): inactive; negative
mutagenic call (Test System: AMES SALMONELLA TYPHIMURIUM, Strain/Indicator: TA1535, Metabolic Activation: NONE, Method: PREINCUBATION): inactive; negative
mutagenic call (Test System: AMES SALMONELLA TYPHIMURIUM, Strain/Indicator: TA1535, Metabolic Activation: NONE, Method: STANDARD PLATE): inactive; negative
mutagenic call (Test System: AMES SALMONELLA TYPHIMURIUM, Strain/Indicator: TA1535, Metabolic Activation: RAT LIVER S-9, AROCLOR 1254 (10 OR 30%), Method: PREINCUBATION): inactive; negative
mutagenic call (Test System: AMES SALMONELLA TYPHIMURIUM, Strain/Indicator: TA1535, Metabolic Activation: RAT, LIVER, S-9, AROCLOR 1254, Method: STANDARD PLATE): inactive; negative
mutagenic call (Test System: AMES SALMONELLA TYPHIMURIUM, Strain/Indicator: TA1537, Metabolic Activation: NONE, Method: STANDARD PLATE): inactive; negative
mutagenic call (Test System: AMES SALMONELLA TYPHIMURIUM, Strain/Indicator: TA1537, Metabolic Activation: RAT, LIVER, S-9, AROCLOR 1254, Method: STANDARD PLATE): inactive; negative
mutagenic call (Test System: AMES SALMONELLA TYPHIMURIUM, Strain/Indicator: TA1537, Metabolic Activation: RAT, LIVER, S-9, AROCLOR 1254, Method: SUSPENSION): active; positive
mutagenic call (Test System: AMES SALMONELLA TYPHIMURIUM, Strain/Indicator: TA1538, Metabolic Activation: NONE, Method: STANDARD PLATE): inactive; negative
mutagenic call (Test System: AMES SALMONELLA TYPHIMURIUM, Strain/Indicator: TA1538, Metabolic Activation: RAT, LIVER, S-9, AROCLOR 1254, Method: STANDARD PLATE): inactive; negative
mutagenic call (Test System: CHINESE HAMSTER OVARY, Strain/Indicator: CHO/6-THIOGUANINE, Metabolic Activation: HAMSTER EMBRYO CELL-MEDIATED): inactive; negative
mutagenic call (Test System: CHINESE HAMSTER OVARY, Strain/Indicator: CHO/6-THIOGUANINE, Metabolic Activation: NONE): inactive; negative
mutagenic call (Test System: CHINESE HAMSTER OVARY, Strain/Indicator: CHO/OUABAIN, Metabolic Activation: HAMSTER EMBRYO CELL-MEDIATED): inactive; negative
mutagenic call (Test System: CHINESE HAMSTER OVARY, Strain/Indicator: CHO/OUABAIN, Metabolic Activation: NONE): inactive; negative
mutagenic call (Test System: CHINESE HAMSTER V-79, Strain/Indicator: V-79 (HGPRT)/6-THIOGUANINE, Metabolic Activation: NONE): inactive; negative
mutagenic call (Test System: CHINESE HAMSTER V-79, Strain/Indicator: V-79 (HGPRT)/6-THIOGUANINE, Metabolic Activation: RAT, LIVER, S-9, PHENOBARBITAL AND BETA-NAPHTHOFLAVONE): inactive; negative
mutagenic call (Test System: CHINESE HAMSTER V-79, Strain/Indicator: V-79/6-THIOGUANINE, Metabolic Activation: NONE, Method: REPLATING): active; positive
mutagenic call (Test System: CHINESE HAMSTER V-79, Strain/Indicator: V-79/OUABAIN, Metabolic Activation: HAMSTER EMBRYO CELL-MEDIATED): inactive; negative
mutagenic call (Test System: CHINESE HAMSTER V-79, Strain/Indicator: V-79/OUABAIN, Metabolic Activation: RAT, LIVER, S-15, PHENOBARBITAL AND 5,6-BENZOFLAVONE): inactive; negative
mutagenic call (Test System: MOUSE LYMPHOMA, Strain/Indicator: L5178Y (TK+/+)/OUABAIN, Metabolic Activation: NONE, Method: SUSPENSION/PLATE): active; positive
mutagenic call (Test System: MOUSE LYMPHOMA, Strain/Indicator: L5178Y (TK+/-)/TRIFLUOROTHYMIDINE, Metabolic Activation: RAT LIVER S-9, AROCLOR 1254, Method: SUSPENSION/PLATE): inactive; negative
mutagenic call (Test System: MOUSE LYMPHOMA, Strain/Indicator: L5178Y (TK+/-)/TRIFLUROTHYMIDINE, Metabolic Activation: NONE, Method: SUSPENSION/PLATE): active; positive
mutagenic call (Test System: MOUSE LYMPHOMA, Strain/Indicator: L5178Y (TK+/TK-), Metabolic Activation: NONE, Method: MICROWELL): active; positive
mutagenic call (Test System: MOUSE LYMPHOMA, Strain/Indicator: L5178Y (TK+/TK-), Metabolic Activation: RAT, LIVER, S-9, AROCLOR 1254, Method: SUSPENSION/PLATE): inactive; negative
mutagenic call (Test System: MOUSE LYMPHOMA, Strain/Indicator: L5178Y (TK+/TK-), Metabolic Activation: RAT, LIVER, S-9, Method: SUSPENSION/PLATE): inactive; negative
mutagenic call (Test System: MOUSE LYMPHOMA, Strain/Indicator: L5178Y (TK+/TK-), Metabolic Activation: S-9, Method: MICROWELL): active; positive
mutagenic call (Test System: UDS RAT HEPATOCYTES, Strain/Indicator: THY INCORP, Metabolic Activation: NONE, Method: LIQUID SCINTILLATION COUNTING): active; positive

Reference: PubChem BioAssay AID1259407 (Chemical Carcinogenesis Research Information System (CCRIS), 2018)
